Measurements taken from patent publication US20180354962A1, “[{[2,3-Dihydro-1H-inden-1-yl]amino}-2H,3H-furo[3,2-b]pyridin-3-yl]acetic acids, pharmaceutical compositions and uses thereof” (Boehringer Ingelheim International GmbH, priority 2015, published 2018).
Values after ≈ are worked out from the molar mass of the structure shown.

What was measured:
[1] = Aqueous solubility from DMSO stock, LC-UV; type: physicochemical; conditions: aqueous buffer, kinetic from dmso stock; buffer pH 2.2, 24 h shaking, 2.5% DMSO
Procedure: The aqueous solubility of the compounds of the invention is determined by comparing the amount dissolved in buffer to the amount in an acetonitrile/water (1/1) solution. Starting from a 10 mM DMSO stock solution aliquots are diluted with acetonitrile/water (1/1) or buffer, respectively. After 24 h of shaking, the solutions are filtrated and analyzed by LC-UV. The amount dissolved in buffer is compared to the amount in the acetonitrile solution. Solubility is usually being measured from 0.001 to 0.125 mg/mL at a DMSO concentration of 2.5%. If more than 90% of the compound is dissolved in buffer, the value is marked with “>”.

[2] = target: T1, cytochrome P450 2C8-isoenzyme (Homo sapiens, UniProt P10632); assay: Inhibition of CYP-2C8 (amodiaquine deethylation, human liver microsomes); type: in vitro ADME; conditions: human liver microsomes 0.05 mg/mL, amodiaquine 1 μM, 37° C.
T1 construct: is assayed at 37° C. with human liver microsomes; from tissue; host or cells: human liver microsomes
T1 sequence (P10632 1-490): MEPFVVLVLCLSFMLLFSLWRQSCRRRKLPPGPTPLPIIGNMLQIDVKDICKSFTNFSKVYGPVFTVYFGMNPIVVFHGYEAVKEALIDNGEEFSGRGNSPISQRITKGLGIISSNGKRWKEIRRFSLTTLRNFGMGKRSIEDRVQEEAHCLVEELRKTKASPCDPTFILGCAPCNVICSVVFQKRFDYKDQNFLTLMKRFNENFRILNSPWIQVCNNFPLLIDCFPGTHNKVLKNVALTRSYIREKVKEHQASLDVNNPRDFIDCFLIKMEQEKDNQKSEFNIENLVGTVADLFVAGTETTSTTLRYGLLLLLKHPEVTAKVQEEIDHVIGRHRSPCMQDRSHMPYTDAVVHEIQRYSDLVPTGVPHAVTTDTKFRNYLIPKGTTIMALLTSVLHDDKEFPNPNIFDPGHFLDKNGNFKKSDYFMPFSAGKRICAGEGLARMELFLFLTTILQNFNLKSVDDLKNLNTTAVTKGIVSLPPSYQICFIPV
Procedure: All assays are carried out on a robotic system in 96 well plates. The final incubation volume contains TRIS buffer (0.1 M), MgCl2 (5 mM), human liver microsomes (0.05 mg/mL), amodiaquine (1 μM) and the test compound at five different concentrations or no compound (high control) in duplicate (e.g. highest concentration 10-50 μM with subsequent serial 1:4 dilutions). Following a short preincubation period, reactions are started with the cofactor (NADPH, 1 mM) and stopped by cooling the incubation down to 8° C. and subsequently by addition of one volume of acetonitrile. An internal standard solution—the stable isotope d5-desethylamodiaquine—is added after quenching of incubations. Peak area analyte (=metabolite formed) and internal standard is determined by LC-MS/MS. The resulting peak area ratio analyte to internal standard in these incubations is compared to a control activity containing no test compound. Within each of the assay runs, the IC50 of a positive control inhibitor (Montelukast) is determined. Experimental IC50 values are calculated by least square regression according to the following equation: % control activity=(100% control activity/(1+(I/IC50)S))−B with I=inhibitor concentration; S=slope factor; B=background activity (lower plateau of the inhibition curve) If the inhibition of the reaction is already >50% at the lowest concentration of the test compound, the IC50 is assigned “<lowest concentration tested” (usually <0.4 μM). If the inhibition of the reaction is still <50% at the highest concentration of the test compound, the IC50 is assigned “>highest concentration tested” (usually >50 μM).

[3] = target: T2, cytochrome P450 2C9-isoenzyme (Homo sapiens, UniProt P11712); assay: Inhibition of CYP-2C9 (diclofenac hydroxylation, human liver microsomes); type: in vitro ADME; conditions: human liver microsomes 0.1 mg/mL, diclofenac 10 μM, 37° C.
T2 construct: is assayed at 37° C. with human liver microsomes; from tissue; host or cells: human liver microsomes
T2 sequence (P11712 whole entry): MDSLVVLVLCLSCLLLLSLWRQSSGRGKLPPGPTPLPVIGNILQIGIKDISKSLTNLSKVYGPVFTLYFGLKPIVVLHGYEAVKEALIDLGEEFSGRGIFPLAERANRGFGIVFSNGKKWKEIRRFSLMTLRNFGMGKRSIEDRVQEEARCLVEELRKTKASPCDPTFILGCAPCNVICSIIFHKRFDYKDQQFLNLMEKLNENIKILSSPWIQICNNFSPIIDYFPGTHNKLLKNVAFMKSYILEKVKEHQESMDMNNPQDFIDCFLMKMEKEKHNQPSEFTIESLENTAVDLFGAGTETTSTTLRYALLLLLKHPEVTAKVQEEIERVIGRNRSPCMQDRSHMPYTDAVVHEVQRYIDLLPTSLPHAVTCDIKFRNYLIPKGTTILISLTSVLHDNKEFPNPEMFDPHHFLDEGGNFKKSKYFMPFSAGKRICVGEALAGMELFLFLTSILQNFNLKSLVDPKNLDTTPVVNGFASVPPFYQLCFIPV
Procedure: All assays are carried out on a robotic system in 96 well plates. The final incubation volume contains TRIS buffer (0.1 M), MgCl2 (5 mM), human liver microsomes (0.1 mg/mL), diclofenac (10 μM) and the test compound at five different concentrations or no compound (high control) in duplicate (e.g. highest concentration 10-50 μM with subsequent serial 1:4 dilutions). Following a short preincubation period, reactions are started with the cofactor (NADPH, 1 mM) and stopped by cooling the incubation down to 8° C. and subsequently by addition of one volume of acetonitrile. An internal standard solution—the stable isotope 13C6-hydroxydiclofenac—is added after quenching of incubations. Peak area analyte (=metabolite formed) and internal standard is determined by LC-MS/MS. The resulting peak area ratio analyte to internal standard in these incubations is compared to a control activity containing no test compound. Within each of the assay runs, the IC50 of a positive control inhibitor (sulfaphenazole) is determined. Experimental IC50 values are calculated by least square regression according to the following equation: % control activity=(100% control activity/(1+(I/IC50)S)))−B with I=inhibitor concentration S=slope factor B=background activity (lower plateau of the inhibition curve) If the inhibition of the reaction is already >50% at the lowest concentration of the test compound, the IC50 is assigned “<lowest concentration tested” (usually <0.4 μM). If the inhibition of the reaction is still <50% at the highest concentration of the test compound, the IC50 is assigned “>highest concentration tested” (usually >50 μM).

human GPR40 receptor = human GPR40 receptor (Homo sapiens, UniProt O14842); assay: IP1 accumulation measurements using the IPOne assay system; type: cell-based; conditions: 1321N1 cells stably expressing human GPR40; 1 h stimulation at 37° C.
Sequence of human GPR40 receptor (O14842 whole entry): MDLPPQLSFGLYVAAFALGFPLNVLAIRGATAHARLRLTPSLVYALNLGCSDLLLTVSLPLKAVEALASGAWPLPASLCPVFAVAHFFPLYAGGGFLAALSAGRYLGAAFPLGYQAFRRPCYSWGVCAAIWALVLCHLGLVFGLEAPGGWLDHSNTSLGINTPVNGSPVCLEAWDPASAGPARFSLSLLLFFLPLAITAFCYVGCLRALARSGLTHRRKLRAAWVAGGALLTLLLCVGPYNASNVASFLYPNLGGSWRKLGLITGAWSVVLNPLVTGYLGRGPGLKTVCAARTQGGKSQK
Procedure: IP1 accumulation measurements using the IPOne assay system—1321N1 cells stably expressing human GPR40 receptor (Euroscreen, Belgium) are seeded 24 h before the assay in white 384-well plates in culture medium containing 10% FCS, 1% Na-Pyruvate and 400 μg/mL G418. IP1 is assayed according to the manufacturer's description (Cisbio Bioassays, France). In brief, the assay is started by substitution of the culture medium by stimulation buffer (Hepes 10 mM, CaCl2 1 mM, MgCl2 0.5 mM, KCl 4.2 mM, NaCl 146 mM, glucose 5.5 mM and LiCl 50 mM, pH 7.4). Cells are stimulated for 1 h at 37° C., 5% CO2 by addition of the compounds that are diluted in stimulation buffer containing LiCl. Assays are stopped by adding HTRF-conjugates (IP1-d2 and Anti-IP1 cryptate Tb) and lysis buffer, provided by the manufacturer. After an incubation time of 1 h at room temperature plates are measured using an EnVision™, Perkin Elmer. The obtained fluorescence ratios at 665/615 […] are then used to calculate the pEC50 values using Assay Explorer 3.3 Software (Accelrys, Inc.) by interpolation using an IP1 reference curve and subsequent sigmoidal curve fitting allowing for a variable hill slope.

Row | Compound | solubility at 24 h [1] | IC50 [2] | IC50 [3] | EC50 (human GPR40 receptor)
1 | Cc1cc(-c2ccn(C)c(=O)c2)cc(C)c1-c1cccc2c1CC[C@H]2Nc1cnc2c(c1)OCC2CC(=O)O (stereo partly drawn) [Example 120, 2-(6-{[(1R)-4-[2,6-Dimethyl-4-(1-methyl-2-oxo-1,2-dihydropyridin-4-yl)phenyl]-2,3-dihydro-1H-inden-1-yl]amino}-2H,3H-furo[3,2-b]pyridin-3-yl)acetic acid] | 0.029 mg/mL (≈ 55.6 µM) | 12 µM | > 50 µM | 0.052 µM
2 | CCc1cccc(CC)c1-c1cccc2c1CC[C@H]2Nc1cnc2c(c1)OCC2CC(=O)O (stereo partly drawn) [Example 124, 2-(6-{[(1R)-4-(2,6-Diethylphenyl)-2,3-dihydro-1H-inden-1-yl]amino}-2H,3H-furo[3,2-b]pyridin-3-yl)acetic acid] | 0.006 mg/mL (≈ 13.6 µM) | 9 µM | 49 µM | 0.075 µM
3 | Cc1nc(-c2cc(C)c(-c3cccc4c3CC[C@H]4Nc3cnc4c(c3)OCC4CC(=O)O)c(C)c2)no1 (stereo partly drawn) [Example 132, 2-(6-{[(1R)-4-[2,6-Dimethyl-4-(5-methyl-1,2,4-oxadiazol-3-yl)phenyl]-2,3-dihydro-1H-inden-1-yl]amino}-2H,3H-furo[3,2-b]pyridin-3-yl)acetic acid] | 0.003 mg/mL (≈ 6.04 µM) | 23 µM | > 50 µM | 0.036 µM
4 | Cc1cc(OC2CCOCC2)cc(C)c1-c1cccc2c1CC[C@H]2Nc1cnc2c(c1)OCC2CC(=O)O (stereo partly drawn) [Example 119, 2-(6-{[(1R)-4-[2,6-Dimethyl-4-(oxan-4-yloxy)phenyl]-2,3-dihydro-1H-inden-1-yl]amino}-2H,3H-furo[3,2-b]pyridin-3-yl)acetic acid] | 0.016 mg/mL (≈ 31.1 µM) | 41 µM | > 50 µM | 0.09 µM
5 | Cc1cc(-c2nnn(CC(C)(C)O)n2)cc(C)c1-c1cccc2c1CC[C@H]2Nc1cnc2c(c1)OCC2CC(=O)O (stereo partly drawn) [Example 122, 2-(6-{[(1R)-4-{4-[2-(2-Hydroxy-2-methylpropyl)-2H-1,2,3,4-tetrazol-5-yl]-2,6-dimethylphenyl}-2,3-dihydro-1H-inden-1-yl]amino}-2H,3H-furo[3,2-b]pyridin-3-yl)acetic acid] | 0.045 mg/mL (≈ 81.1 µM) | 32 µM | > 50 µM | 0.024 µM
6 | N#Cc1cccc(C#N)c1-c1cccc2c1CC[C@H]2Nc1cnc2c(c1)OCC2CC(=O)O (stereo partly drawn) [Example 130, 2-(6-{[(1R)-4-(2,6-Dicyanophenyl)-2,3-dihydro-1H-inden-1-yl]amino}-2H,3H-furo[3,2-b]pyridin-3-yl)acetic acid] | 0.084 mg/mL (≈ 192 µM) | > 50 µM | > 50 µM | > 10 µM
7 | Cc1cc(-c2ccc(=O)n(C)c2)cc(C)c1-c1cccc2c1CC[C@H]2Nc1cnc2c(c1)OCC2CC(=O)O (stereo partly drawn) [Example 121, 2-(6-{[(1R)-4-[2,6-Dimethyl-4-(1-methyl-6-oxo-1,6-dihydropyridin-3-yl)phenyl]-2,3-dihydro-1H-inden-1-yl]amino}-2H,3H-furo[3,2-b]pyridin-3-yl)acetic acid] | 0.051 mg/mL (≈ 97.8 µM) | 29 µM | > 50 µM | 0.061 µM
8 | COc1cc(F)c(-c2cccc3c2CC[C@H]3Nc2cnc3c(c2)OCC3CC(=O)O)c(F)c1 (stereo partly drawn) [Example 127, 2-(6-{[(1R)-4-(2,6-Difluoro-4-methoxyphenyl)-2,3-dihydro-1H-inden-1-yl]amino}-2H,3H-furo[3,2-b]pyridin-3-yl)acetic acid] | 0.03 mg/mL (≈ 66.3 µM) | 27 µM | > 50 µM | 1.24 µM
9 | Cc1cc(C(=O)N(C)C)cc(C)c1-c1cccc2c1CC[C@H]2Nc1cnc2c(c1)OCC2CC(=O)O (stereo partly drawn) [Example 126, 2-(6-{[(1R)-4-[4-(Dimethylcarbamoyl)-2,6-dimethylphenyl]-2,3-dihydro-1H-inden-1-yl]amino}-2H,3H-furo[3,2-b]pyridin-3-yl)acetic acid] | 0.079 mg/mL (≈ 163 µM) | 37 µM | > 50 µM | 1.87 µM
10 | Cc1cc(OCCC(C)(C)O)cc(C)c1-c1cccc2c1CC[C@H]2Oc1ccc2c(c1)OC[C@H]2CC(=O)O [7 (WO 2013/144098), reference compound] | – | 5 µM | > 10 µM | –
11 | N#CC1(c2ccccc2-c2cccc3c2CC[C@H]3Nc2cnc3c(c2)OCC3CC(=O)O)CC1 (stereo partly drawn) [Example 131, 2-(6-{[(1R)-4-[2-(1-Cyanocyclopropyl)phenyl]-2,3-dihydro-1H-inden-1-yl]amino}-2H,3H-furo[3,2-b]pyridin-3-yl)acetic acid] | 0.067 mg/mL (≈ 148 µM) | 37 µM | > 50 µM | 6.39 µM
12 | Cc1cc(OCCC(C)(C)O)cc(C)c1-c1ccc(F)c2c1CC[C@H]2Nc1cnc2c(c1)OCC2CC(=O)O (stereo partly drawn) [Example 1, 2-(6-{[(1R)-7-Fluoro-4-[4-(3-hydroxy-3-methylbutoxy)-2,6-dimethylphenyl]-2,3-dihydro-1H-inden-1-yl]amino}-2H,3H-furo[3,2-b]pyridin-3-yl)acetic acid] | – | 17 µM | > 50 µM | 0.057 µM
13 | Cc1cc(-c2cc(=O)n(C)cn2)cc(C)c1-c1cccc2c1CC[C@H]2Nc1cnc2c(c1)OCC2CC(=O)O (stereo partly drawn) [Example 133, 2-(6-{[(1R)-4-[2,6-Dimethyl-4-(1-methyl-6-oxo-1,6-dihydropyrimidin-4-yl)phenyl]-2,3-dihydro-1H-inden-1-yl]amino}-2H,3H-furo[3,2-b]pyridin-3-yl)acetic acid] | 0.078 mg/mL (≈ 149 µM) | 21 µM | > 50 µM | 0.033 µM
